Reference: US20240209028A1, “CNP COMPOUNDS” (priority 2022, published 2024)
Starred links: 1 amine or outer side, 2 acyl side, 3 side chain; linkers in the order of their positions; H or OH if unused. Positions of bridges follow the written chain, without caps; N, C: chain ends. Residues, ends and D or L forms follow the SMILES beside them. *: point of attachment. C18 diacid = O=C(O)CCCCCCCCCCCCCCCCC(=O)*; γGlu = O=C(O)[C@H](CCC(=O)[*:2])N[*:1]; AEEA = NCCOCCOCC(=O)O

Key:
[1] = Thioflavin T (ThT) assay: lagtime and peptide recovery; assay type: physicochemical; settings: assay terminated after 45 hours; for LagTime (h) at pH 6.5: ThT assay, pH 6.5, 37° C.
Excerpt: The ThT assay was used to evaluate physical stability of the CNP compounds and their suitability for liquid formulation. Low physical stability of peptides may lead to amyloid fibril formation, which is observed as well-ordered, thread-like macromolecular structures in the sample eventually resulting in gel formation. This has traditionally been tested by visual inspection of the sample. However, that kind of measurement is very subjective and depending on the observer. Therefore, the application of a small molecule indicator probe is much more advantageous. Thioflavin T (ThT) is such a probe and has a distinct fluorescence signature when binding to fibrils [Naiki et al. (1989) Anal. Biochem. 177, 244-249; LeVine (1999) Methods. Enzymol. […], 274-284].
Procedure: Thioflavin T was added to the supernatant samples from Example 5 (pH 4.0 and 6.5) using an aqueous ThT stock solution to a final concentration of about 1 μM in the samples. Sample aliquots of 150 μL were placed in a 96 well microtiter plate (Packard OptiPlate™-96, white polystyrene). Usually, two to three replicas of each sample were applied to the plate. The plate was sealed and placed in a fluorescence plate reader (Fluoroskan Ascent FL) and incubated at 37° C. with orbital shaking (960 rpm; 1 mm amplitude). Fluorescence measurements were performed every 20 minutes using excitation through a 444 nm filter and measurement of emission through a 485 nm filter. Between each measurement, the plate was shaken and heated as described above and the assay was terminated after 45 hours. Fluorescence measurements for each microtiter plate well were plotted against time and the lag-time (time until an increase in ThT fluorescence was observed) was estimated.
To assess loss of dissolved peptide following 45h incubation, peptide recovery was measured as the ratio between total peak area after incubation vs. before incubation using the RP-UPLC method described below.
Measurement of LagTime and Peptide recovery % using RP-UPLC: RP-UPLC was conducted using an Acquity UPLC BEH C18 1.7 μm (2.1×30 mm) Waters column (Eluent A: 0.1% v/v % TFA in water; Eluent B: 0.1% v/v TFA in acetonitrile/water 4:1) with gradient elution (0 min: 95% A; 2 min: 20% A; 2.3 min: 20% A; 2.4 min: 95% A; 9 min: 95% A) in a flow rate of 0.9 mL/min and a column temperature of 30° C. UV-detection at 215 nm was used to assess the total peptide area.
Samples at pH 4.0 were prepared as described in Example 5 and subjected to the ThT assay as described above.
Samples at pH 6.5 were prepared as described in Example 5 and subjected to the ThT assay as described above.

[2] = High-Molecular-Weight-Protein (HMWP) formation by SEC-UPLC; assay type: physicochemical; settings: increase over two weeks at 37° C.
Description: In order to assess the propensity of CNP compounds to form covalent dimers or oligomers when formulated the High-Molecular-Weight-Protein content of CNP compound formulations at pH 4.0 and 6.5 were determined.
Procedure: The relative amount of covalent HMWP was assessed using SEC-UPLC. SEC-UPLC was conducted using a Waters UPLC Protein BEH SEC column, 125A, 4.6×150 mm, 1.7 μm, with isocratic elution (0.3 M NaCl, 10 mM NaH2PO4 and 5 mM H3PO4, 50% (v/v) isopropanol, pH 2.4) with a flow rate of 0.3 mL/min, a column temperature at 50° C. with UV-detection at 215 nm. The total area of peaks eluting prior to the monomeric main peak was termed HMWP and given on a percentage scale relative to the total peptide peak area.
(§1) Results: HMWP Formation Following 2-Weeks Quiescent Incubation at 37° C.: Samples at pH 4.0 were prepared as described in Example 5 and the amount of HMWP was determined as described above. Samples were incubated for two weeks at 37° C. and the amount of HMWP was determined again. The increase in HMWP over two weeks incubation at 37° C. are reported in Table 10 (in case the incubation period deviated from two weeks the increase in HMWP was normalized to two weeks assuming a constant formation rate).
as §1, with “Samples” for “Results: HMWP Formation Following 2-Weeks Quiescent Incubation at 37° C.: Samples”, “6.5” for “4.0”, “11” for “10”

SMILES	LagTime (h) at pH 4.0 ([1]; ThT, 37° C., shaking) [h]	2-Week HMWP formation at pH 4.0 (%), % relative to total peak area ([2]; pH 4.0) [%]	LagTime (h) at pH 6.5 [1] [h]	2-Week HMWP formation at pH 6.5 (%), % relative to total peak area [2] [%]
CC[C@H](C)[C@@H]1NC(=O)[C@H](CCCNC(=N)N)NC(=O)[C@H](CC(=O)O)NC(=O)[C@H](CC(C)C)NC(=O)[C@@H]2CCCN2C(=O)[C@H](CC(C)C)NC(=O)CNC(=O)[C@H](Cc2ccccc2)NC(=O)[C@@H](NC(=O)CNC(=O)[C@H](CO)NC(=O)[C@H](CO)NC(=O)[C@H](CC(C)C)NC(=O)CNC(=O)[C@H](CCCCN)NC(=O)[C@H](CCCCN)NC(=O)[C@H](CCC(N)=O)NC(=O)[C@H](C)NC(=O)CNC(=O)[C@H](CCCCN)NC(=O)[C@H](Cc2ccc(O)cc2)NC(=O)[C@H](CCCCN)NC(=O)[C@H](CCCNC(=N)N)NC(=O)[C@H](C)NC(=O)[C@H](CCC(N)=O)NC(=O)[C@@H]2CCCN2C(=O)[C@H](Cc2c[nH]cn2)NC(=O)[C@H](CCC(=O)O)NC(=O)[C@H](CCC(N)=O)NC(=O)CC[C@H](NC(=O)CC[C@H](NC(=O)CC[C@H](NC(=O)CC[C@H](NC(=O)CCCCCCCCCCCCCCCCC(=O)O)C(=O)O)C(=O)O)C(=O)O)C(=O)O)CSSC[C@@H](C(=O)O)NC(=O)CNC(=O)[C@H](CC(C)C)NC(=O)CNC(=O)[C@H](CO)NC(=O)[C@H](CC(C)C)NC(=O)[C@H](CO)NC(=O)CNC1=O [compound 1389] ({C18 diacid-γGlu-γGlu-γGlu-γGlu}-QEHPQARKYKGAQKKGLSSGCFGLPLDRIGSLSGLGC-OH; disulfide 21-37)	45	1.43		
CC[C@H](C)[C@@H]1NC(=O)[C@H](CCCNC(=N)N)NC(=O)[C@H](CC(=O)O)NC(=O)[C@H](CC(C)C)NC(=O)[C@@H]2CCCN2C(=O)[C@H](CC(C)C)NC(=O)CNC(=O)[C@H](Cc2ccccc2)NC(=O)[C@@H](NC(=O)CNC(=O)[C@H](CO)NC(=O)[C@H](CO)NC(=O)[C@H](CC(C)C)NC(=O)CNC(=O)[C@H](CCCCN)NC(=O)[C@H](CCCCN)NC(=O)[C@H](CCC(N)=O)NC(=O)[C@H](C)NC(=O)CNC(=O)[C@H](CCC(=O)O)NC(=O)[C@H](Cc2ccc(O)cc2)NC(=O)COCCOCCNC(=O)COCCOCCNC(=O)COCCOCCNC(=O)COCCOCCNC(=O)CC[C@H](NC(=O)CCCCCCCCCCCCCCCCC(=O)O)C(=O)O)CSSC[C@@H](C(=O)O)NC(=O)CNC(=O)[C@H](CC(C)C)NC(=O)CNC(=O)[C@H](CO)NC(=O)[C@H](CC(C)C)NC(=O)[C@H](CO)NC(=O)CNC1=O [compound 1392] ({C18 diacid-γGlu-AEEA-AEEA-AEEA-AEEA}-YEGAQKKGLSSGCFGLPLDRIGSLSGLGC-OH; disulfide 13-29)			45	0.33
CC[C@H](C)[C@@H]1NC(=O)[C@H](CCCNC(=N)N)NC(=O)[C@H](CC(=O)O)NC(=O)[C@H](CC(C)C)NC(=O)[C@@H]2CCCN2C(=O)[C@H](CC(C)C)NC(=O)CNC(=O)[C@H](Cc2ccccc2)NC(=O)[C@@H](NC(=O)CNC(=O)[C@H](CCC(N)=O)NC(=O)[C@H](CO)NC(=O)[C@H](CC(C)C)NC(=O)CNC(=O)[C@H](CCCCN)NC(=O)[C@H](CCCCN)NC(=O)[C@H](CCC(N)=O)NC(=O)[C@H](C)NC(=O)CNC(=O)[C@H](CCCCN)NC(=O)[C@H](Cc2ccc(O)cc2)NC(=O)[C@H](CCCCN)NC(=O)[C@H](CCCNC(=N)N)NC(=O)[C@H](C)NC(=O)[C@H](CCC(N)=O)NC(=O)[C@@H]2CCCN2C(=O)[C@H](Cc2c[nH]cn2)NC(=O)[C@H](CCC(=O)O)NC(=O)[C@H](CCC(N)=O)NC(=O)COCCOCCNC(=O)COCCOCCNC(=O)CC[C@H](NC(=O)CC[C@H](NC(=O)CC[C@H](NC(=O)CC[C@H](NC(=O)CC[C@H](NC(=O)CC[C@H](NC(=O)CCCCCCCCCCCCCCCCC(=O)O)C(=O)O)C(=O)O)C(=O)O)C(=O)O)C(=O)O)C(=O)O)CSSC[C@@H](C(=O)O)NC(=O)CNC(=O)[C@H](CC(C)C)NC(=O)CNC(=O)[C@H](CO)NC(=O)[C@H](CC(C)C)NC(=O)[C@H](CO)NC(=O)CNC1=O [compound 1402] ({C18 diacid-γGlu-γGlu-γGlu-γGlu-γGlu-γGlu-AEEA-AEEA}-QEHPQARKYKGAQKKGLSQGCFGLPLDRIGSLSGLGC-OH; disulfide 21-37)			45	2.19
CC[C@H](C)[C@@H]1NC(=O)[C@H](CCCNC(=N)N)NC(=O)[C@H](CC(=O)O)NC(=O)[C@H](CC(C)C)NC(=O)[C@@H]2CCCN2C(=O)[C@H](CC(C)C)NC(=O)CNC(=O)[C@H](Cc2ccccc2)NC(=O)[C@@H](NC(=O)CNC(=O)[C@H](CCC(N)=O)NC(=O)[C@H](CO)NC(=O)[C@H](CC(C)C)NC(=O)CNC(=O)[C@H](CCCCN)NC(=O)[C@H](CCCCN)NC(=O)[C@H](CCC(N)=O)NC(=O)[C@H](C)NC(=O)CNC(=O)[C@H](CCCCN)NC(=O)[C@H](Cc2ccc(O)cc2)NC(=O)[C@H](CCCCN)NC(=O)[C@H](CCCNC(=N)N)NC(=O)[C@H](C)NC(=O)[C@H](CCC(N)=O)NC(=O)[C@@H]2CCCN2C(=O)[C@H](Cc2c[nH]cn2)NC(=O)[C@H](CCC(=O)O)NC(=O)[C@H](CCC(N)=O)NC(=O)COCCOCCNC(=O)COCCOCCNC(=O)COCCOCCNC(=O)COCCOCCNC(=O)CC[C@H](NC(=O)CC[C@H](NC(=O)CC[C@H](NC(=O)CC[C@H](NC(=O)CC[C@H](NC(=O)CC[C@H](NC(=O)CCCCCCCCCCCCCCCCC(=O)O)C(=O)O)C(=O)O)C(=O)O)C(=O)O)C(=O)O)C(=O)O)CSSC[C@@H](C(=O)O)NC(=O)CNC(=O)[C@H](CC(C)C)NC(=O)CNC(=O)[C@H](CO)NC(=O)[C@H](CC(C)C)NC(=O)[C@H](CO)NC(=O)CNC1=O [compound 1404] ({C18 diacid-γGlu-γGlu-γGlu-γGlu-γGlu-γGlu-AEEA-AEEA-AEEA-AEEA}-QEHPQARKYKGAQKKGLSQGCFGLPLDRIGSLSGLGC-OH; disulfide 21-37)			45	1.8
CC[C@H](C)[C@@H]1NC(=O)[C@H](CCCNC(=N)N)NC(=O)[C@H](CC(=O)O)NC(=O)[C@H](CC(C)C)NC(=O)[C@@H]2CCCN2C(=O)[C@H](CC(C)C)NC(=O)CNC(=O)[C@H](Cc2ccccc2)NC(=O)[C@@H](NC(=O)CNC(=O)[C@H](CCC(N)=O)NC(=O)[C@H](CO)NC(=O)[C@H](CC(C)C)NC(=O)CNC(=O)[C@H](CCCCN)NC(=O)[C@H](CCCCN)NC(=O)[C@H](CCC(N)=O)NC(=O)[C@H](C)NC(=O)CNC(=O)[C@H](CCCCN)NC(=O)[C@H](Cc2ccc(O)cc2)NC(=O)[C@H](CCCCN)NC(=O)[C@H](CCCNC(=N)N)NC(=O)[C@H](C)NC(=O)[C@H](CCC(N)=O)NC(=O)[C@@H]2CCCN2C(=O)[C@H](Cc2c[nH]cn2)NC(=O)[C@H](CCC(=O)O)NC(=O)[C@H](CCC(N)=O)NC(=O)COCCOCCNC(=O)COCCOCCNC(=O)COCCOCCNC(=O)COCCOCCNC(=O)CC[C@H](NC(=O)CC[C@H](NC(=O)CC[C@H](NC(=O)CC[C@H](NC(=O)CC[C@H](NC(=O)CCCCCCCCCCCCCCCCC(=O)O)C(=O)O)C(=O)O)C(=O)O)C(=O)O)C(=O)O)CSSC[C@@H](C(=O)O)NC(=O)CNC(=O)[C@H](CC(C)C)NC(=O)CNC(=O)[C@H](CO)NC(=O)[C@H](CC(C)C)NC(=O)[C@H](CO)NC(=O)CNC1=O [compound 1406] ({C18 diacid-γGlu-γGlu-γGlu-γGlu-γGlu-AEEA-AEEA-AEEA-AEEA}-QEHPQARKYKGAQKKGLSQGCFGLPLDRIGSLSGLGC-OH; disulfide 21-37)			45	2.77
